Laboratory results: the supplement of paper PMC11061612

Tests used:
Assay in all cases: combination Emax (second highest fraction inhibited in the dose matrix, 72 h); higher = more inhibition; extreme values may be limits of the assay
[1] = test system: LOU-NH91 (Squamous Cell Lung Carcinoma)
How it was run: (§1)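 Bliss excess equals the observed combination effect minus the expected value EA + EB − EA·EB, where EA and EB are the effects of each agent alone. Combination Emax is the second-highest inhibition within the matrix. Inhibition was scaled from CellTiter-Glo 2.0 luminescence, with 0 set by vehicle wells and 1 by blank wells, after 72 hours of two-drug dosing of cells plated in 1536-well plates.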

[2] = test system: MFE-319 (Endometrial Carcinoma)
How it was run: as §1

[3] = test system: OVISE (Ovarian Carcinoma)
How it was run: as §1

[4] = test system: KU-19-19 (Bladder Carcinoma)
How it was run: as §1

[5] = test system: TGBC11TKB (Gastric Carcinoma)
How it was run: as §1

[6] = test system: SCC-3 (B-Cell Non-Hodgkin's Lymphoma)
How it was run: as §1

RPMI-7951 (Melanoma) = test system: RPMI-7951 (Melanoma)
How it was run: as §1

[7] = test system: NCI-H2347 (Lung Adenocarcinoma)
How it was run: as §1

[8] = test system: JHH-7 (Hepatocellular Carcinoma)
How it was run: as §1

[9] = test system: PF-382 (T-Lymphoblastic Leukemia)
How it was run: as §1

[10] = test system: OCUM-1 (Gastric Carcinoma)
How it was run: as §1

[11] = test system: ASH-3 (Thyroid Gland Carcinoma)
How it was run: as §1

[12] = test system: HSC-2 (Oral Cavity Carcinoma)
How it was run: as §1

NB7 (Neuroblastoma) = test system: NB7 (Neuroblastoma)
How it was run: as §1

GOTO (Neuroblastoma) = test system: GOTO (Neuroblastoma)
How it was run: as §1

BT-20 (Breast Carcinoma) = test system: BT-20 (Breast Carcinoma)
How it was run: as §1

EW-18 (Ewing's Sarcoma) = test system: EW-18 (Ewing's Sarcoma)
How it was run: as §1

[13] = test system: NCI-H2405 (Lung Adenocarcinoma)
How it was run: as §1

[14] = test system: NCI-H322M (Lung Adenocarcinoma)
How it was run: as §1

[15] = test system: NCI-N87 (Gastric Carcinoma)
How it was run: as §1

Structure (SMILES) | combination Emax [1] | combination Emax [2] | combination Emax [3] | combination Emax [4] | combination Emax [5] | combination Emax [6] | combination Emax (RPMI-7951 (Melanoma)) | combination Emax [7] | combination Emax [8] | combination Emax [9] | combination Emax [10] | combination Emax [11] | combination Emax [12] | combination Emax (NB7 (Neuroblastoma)) | combination Emax (GOTO (Neuroblastoma)) | combination Emax (BT-20 (Breast Carcinoma)) | combination Emax (EW-18 (Ewing's Sarcoma)) | combination Emax [13] | combination Emax [14] | combination Emax [15]
COc1nnc2ccc(N3CCC(c4ccc(OCCN5CCN(C)C(=O)[C@H]5C)cc4)CC3)nn12 [AZD5153] + CCN(CCO)CCCOc1ccc2c(Nc3cc(CC(=O)Nc4cccc(F)c4)[nH]n3)ncnc2c1 [AZD2811] (first compound max 1 µM, 7x7, partner max 1 µM) | 0.743 | 0.535 | 0.589 | 0.665 | 0.311 | 0.9 | 0.613 | 0.385 | 0.361 | 0.98 | 0.581 | 0.78 | 0.662 | 0.441 | 0.858 | 0.185 | 0.768 | 0.367 | 0.507 | 0.547
COc1nnc2ccc(N3CCC(c4ccc(OCCN5CCN(C)C(=O)[C@H]5C)cc4)CC3)nn12 [AZD5153] + C[C@@H]1COCCN1C2=NC(=NC(=C2)C3(CC3)[S@](=N)(=O)C)C4=C5C=CNC5=NC=C4 [AZD6738] (first compound max 1 µM, 7x7, partner max 10 µM) | 0.871 | 0.785 | 0.754 | 0.685 | 0.801 | 0.986 | 0.925 | 0.525 | 0.324 | 1 | 0.641 | 0.852 | 0.79 | 0.589 | 0.979 | 0.399 | 0.781 | 0.511 | 0.865 | 0.766
COc1nnc2ccc(N3CCC(c4ccc(OCCN5CCN(C)C(=O)[C@H]5C)cc4)CC3)nn12 [AZD5153] + Cc1c2c(nn1C)CSCc1cc(n(C)n1)CSc1cc(c3ccccc3c1)OCCCc1c(C(=O)O)n(C)c3c-2c(Cl)ccc13 [AZD5991] (first compound max 1 µM, 7x7, partner max 1 µM) | 0.705 | 0.985 | 0.633 | 0.775 | 0.789 | 0.997 | 0.825 | 0.39 | 0.291 | 0.986 | 0.581 | 0.88 | 0.963 | 0.875 | 0.919 | 0.787 | 0.938 | 0.36 | 0.539 | 0.551
COc1nnc2ccc(N3CCC(c4ccc(OCCN5CCN(C)C(=O)[C@H]5C)cc4)CC3)nn12 [AZD5153] + Cn1cnc2c(F)c(Nc3ccc(Br)cc3Cl)c(C(=O)NOCCO)cc21 [Selumetinib] (first compound max 1 µM, 7x7, partner max 10 µM) | 0.63 | 0.579 | 0.626 | 1 | 0.683 | 0.93 | 0.677 | 0.6 | 0.512 | 0.903 | 0.909 | 0.713 | 0.737 | 0.45 | 0.822 | 0.302 | 0.59 | 0.521 | 0.726 | 0.567
Cc1c2c(nn1C)CSCc1cc(n(C)n1)CSc1cc(c3ccccc3c1)OCCCc1c(C(=O)O)n(C)c3c-2c(Cl)ccc13 [AZD5991] + C1CN(CCC1(C(=O)N[C@@H](CCO)C2=CC=C(C=C2)Cl)N)C3=NC=NC4=C3C=CN4 [Capivasertib] (first compound max 1 µM, 7x7, partner max 3 µM) | 0.427 | 0.776 | 0.354 | 0.174 | 0.472 | 0.487 | 0.986 | 0.134 | 0.188 | 0.477 | 0.219 | 0.267 | 0.976 | 0.609 | 0.725 | 0.867 | 0.95 | 0.203 | 0.225 | 0.422
Cc1c2c(nn1C)CSCc1cc(n(C)n1)CSc1cc(c3ccccc3c1)OCCCc1c(C(=O)O)n(C)c3c-2c(Cl)ccc13 [AZD5991] + C=CCn1c(=O)c2cnc(Nc3ccc(N4CCN(C)CC4)cc3)nc2n1-c1cccc(C(C)(C)O)n1 [AZD1775] (first compound max 1 µM, partner max 1 µM) | 0.556 | 0.913 | 0.633 | 0.891 | 0.922 | 0.85 | 0.957 | 0.357 | 0.415 | 0.961 | 0.38 | 0.339 | 0.853 | 0.869 | 0.834 | 0.809 | 0.91 | 0.262 | 0.854 | 0.727
Cc1c2c(nn1C)CSCc1cc(n(C)n1)CSc1cc(c3ccccc3c1)OCCCc1c(C(=O)O)n(C)c3c-2c(Cl)ccc13 [AZD5991] + CC1(C)CCC(CN2CCN(c3ccc(C(=O)NS(=O)(=O)c4ccc(NCC5CCOCC5)c([N+](=O)[O-])c4)c(Oc4cnc5[nH]ccc5c4)c3)CC2)=C(c2ccc(Cl)cc2)C1 [Venetoclax] (first compound max 1 µM, 7x7, partner max 1 µM) | 0.221 | 0.881 | 0.442 | 0.588 | 0.792 | 0.358 | 0.903 | 0.138 | 0.221 | 0.337 | 0.0835 | 0.325 | 0.965 | 0.513 | 0.795 | 0.889 | 0.919 | 0.175 | 0.155 | 0.23
Cc1c2c(nn1C)CSCc1cc(n(C)n1)CSc1cc(c3ccccc3c1)OCCCc1c(C(=O)O)n(C)c3c-2c(Cl)ccc13 [AZD5991] + CCN(CCO)CCCOc1ccc2c(Nc3cc(CC(=O)Nc4cccc(F)c4)[nH]n3)ncnc2c1 [AZD2811] (first compound max 1 µM, 7x7, partner max 1 µM) | 0.612 | 0.603 | 0.376 | 0.508 | 0.582 | 0.51 | 0.974 | 0.213 | 0.453 | 0.923 | 0.394 | 0.3 | 0.968 | 0.872 | 0.709 | 0.787 | 0.919 | 0.221 | 0.188 | 0.395
Cc1c2c(nn1C)CSCc1cc(n(C)n1)CSc1cc(c3ccccc3c1)OCCCc1c(C(=O)O)n(C)c3c-2c(Cl)ccc13 [AZD5991] + CN(C)CCCOc1ccc(-c2ccc3ncc4c(c3c2)n(C2CCOCC2)c(=O)n4C)cn1 [AZD0156] (first compound max 1 µM, 7x7, partner max 1 µM) | 0.47 | 0.78 | 0.283 | 0.253 | 0.476 | 0.396 | 0.945 | 0.239 | 0.14 | 0.337 | 0.113 | 0.344 | 0.835 | 0.499 | 0.757 | 0.636 | 0.94 | 0.228 | 0.279 | 0.45
Cc1c2c(nn1C)CSCc1cc(n(C)n1)CSc1cc(c3ccccc3c1)OCCCc1c(C(=O)O)n(C)c3c-2c(Cl)ccc13 [AZD5991] + C[C@@H](Nc1cc(F)cc(F)c1)c1cc(C(=O)N(C)C)cc2c(=O)cc(N3CCOCC3)oc12 [AZD8186] (first compound max 1 µM, 7x7, partner max 3 µM) | 0.371 | 0.401 | 0.325 | 0.212 | 0.548 | 0.409 | 0.939 | 0.279 | 0.169 | 0.27 | 0.137 | 0.46 | 0.963 | 0.686 | 0.654 | 0.614 | 0.94 | 0.165 | 0.414 | 0.442
Cc1c2c(nn1C)CSCc1cc(n(C)n1)CSc1cc(c3ccccc3c1)OCCCc1c(C(=O)O)n(C)c3c-2c(Cl)ccc13 [AZD5991] + Cc1cc2ncnn2cc1Nc1ncc2c(n1)n(C1CCOCC1)c(=O)n2C [AZD7648] (first compound max 1 µM, 7x7, partner max 10 µM) | 0.278 | 0.471 | 0.269 | 0.26 | 0.359 | 0.308 | 0.91 | 0.287 | 0.164 | 0.353 | 0.215 | 0.358 | 0.844 | 0.546 | 0.72 | 0.694 | 0.936 | 0.204 | 0.459 | 0.492
Cc1c2c(nn1C)CSCc1cc(n(C)n1)CSc1cc(c3ccccc3c1)OCCCc1c(C(=O)O)n(C)c3c-2c(Cl)ccc13 [AZD5991] + Cn1cnc2c(F)c(Nc3ccc(Br)cc3Cl)c(C(=O)NOCCO)cc21 [Selumetinib] (first compound max 1 µM, 7x7, partner max 3 µM) | 0.581 | 0.604 | 0.291 | 0.885 | 0.683 | 0.639 | 0.934 | 0.41 | 0.278 | 0.207 | 0.895 | 0.368 | 0.907 | 0.536 | 0.714 | 0.763 | 0.927 | 0.483 | 0.566 | 0.426
C[C@@H]1COCCN1c1cc(C2([S@](C)(=N)=O)CC2)nc(-c2ccnc3[nH]ccc23)n1 [AZD6738] + O=C(c1cc(Cc2n[nH]c(=O)c3ccccc23)ccc1F)N1CCN(C(=O)C2CC2)CC1 [Olaparib] (first compound max 10 µM, 7x7, partner max 10 µM) | 0.236 | 0.567 | 0.663 | 0.767 | 0.796 | 0.994 | 0.886 | 0.385 | 0.339 | 0.916 | 0.675 | 0.652 | 0.721 | 0.944 | 0.808 | 0.415 | 0.666 | 0.28 | 0.697 | 0.693
